Non-standard residues stand in square brackets, D forms with d. Residues, ends and D or L forms follow the SMILES beside them. No end group written: not given here.
How the values were obtained:
Assay type in all cases: cell-based
[1] = test system: Staphylococcus aureus (ATCC 6538); experiment: Disinfection Efficacy antimicrobial assay (ISO 14729), S. aureus; details: for biocidal effect on S. aureus (in words): 100 ug/mL
Procedure: (§1) Peptides were tested using a conventional Disinfection Efficacy antimicrobial assay (ISO 14729), commonly used in evaluating biocidal efficacy of preservatives for use in contact lens care solutions. Briefly, a known concentration of organisms are inoculated into the test solution, and allowed to incubate for a given amount of time, after which they are neutralized to inactivate the preservative. Samples are serially diluted and plated in duplicate onto petri plates onto which growth medium is poured. The plates are incubated at 35° C. (bacteria) or 25° C. (yeast and molds) for 48 hours. The average number of colony forming units is determined on countable plates (the dilution at which between 30 to 300 cfu/plate are observed, except when colonies are observed only on the −1 dilution plates). The log reduction resulting from exposure to the test solution is calculated based on the growth of positive controls plated simultaneously. Recovery controls, to confirm that the test solution is neutralized, and viability controls are also plated.
(§2) Method: The Disinfection Efficacy test was used with the following organisms: Staphylococcus aureus (ATCC 6538), Pseudomonas aeruginosa (ATCC 9027), Serratia marcesens (ATCC 13880), Candida albicans (ATCC 10231), and Fusarium solani (ATCC 36031). The peptides were diluted in water at a concentration of 100 ug/mL (adjusted for purity). Organism cultures were prepared to result in an inoculum concentration between 10^7 and 10^8 cfu/mL. The test solutions were inoculated for a 1 hour and a 3 hour exposure period, neutralized with DEB with 0.1% SLS added, and plated in duplicate.
(§3) Method: The Disinfection Efficacy test was used as in experiment 2 using Staphylococcus aureus and Pseudomonas aeruginosa. The peptides were diluted in water at concentrations of 100, 33.3, 10, 3.33, and 1 ug/mL. The test solutions were inoculated for 1 hour, neutralized, and plated in duplicate.

[2] = test system: Fusarium solani (ATCC 36031); experiment: Disinfection Efficacy antimicrobial assay (ISO 14729), F. solani; details: Exp. 2, 1 hour exposure; for biocidal effect on F. solani (in words): 100 ug/mL
Procedure: as §1, §2

[3] = test system: Candida albicans (ATCC 10231); experiment: Disinfection Efficacy antimicrobial assay (ISO 14729), C. albicans; details: Exp. 2, 1 hour exposure; for biocidal effect on C. albicans (in words): 100 ug/mL
Procedure: as §1
Method: Candida albicans (ATCC 10231) stock cultures were incubated and prepared to result in cell suspensions containing between 10^7 and 10^8 cfu/mL. The Disinfection Efficacy test, as described above, was used, with the following modification: Since the standard Dey-Engley broth used to neutralize preservatives was not necessarily expected to neutralize the peptide, 0.1% sodium laurel sulfate (SLS) was added to the neutralization solution. Controls confirmed that this was effective in neutralizing the peptide test solution.
as §2, with “The test solutions were inoculated for a 1 hour and a 3 hour exposure period, neutralized with DEB with 0.1% SLS added, and plated in duplicate.” left out

[4] = test system: Pseudomonas aeruginosa (ATCC 9027); experiment: Disinfection Efficacy antimicrobial assay (ISO 14729), P. aeruginosa; details: for biocidal effect on P. aeruginosa (in words): 100 ug/mL; for lowest concentration resulting in complete kill of P. aeruginosa: 1 hour, tested at 100, 33.3, 10, 3.33 and 1 ug/mL
Procedure: as §1, §2, §3

[5] = test system: Serratia marcesens (ATCC 13880); experiment: Disinfection Efficacy antimicrobial assay (ISO 14729), S. marcescens; details: Exp. 2, 1 hour exposure; for biocidal effect on S. marcescens (in words): 100 ug/mL
Procedure: as §1, §2

[6] = test system: Staphylococcus aureus, Pseudomonas aeruginosa, Serratia marcesens, Candida albicans, Fusarium solani; experiment: Disinfection Efficacy test, all 5 organisms of Experiment 2; details: Exp. 2; 100 ug/mL, one hour exposure
Procedure: as §1
Method: The Disinfection Efficacy test was used with the following organisms: Staphylococcus aureus (ATCC 6538), Pseudomonas aeruginosa (ATCC 9027), Serratia marcesens (ATCC 13880), Candida albicans (ATCC 10231), and Fusarium solani (ATCC 36031). The peptides were diluted in water at a concentration of 100 ug/mL (adjusted for purity). […]

[7] = Exp. 3, Conc. 3.33 μg/mL, T = 1 hr
[8] = Exp. 3, Conc. 33 μg/mL, T = 1 hr
[9] = Exp. 3, Conc. 100 μg/mL, T = 1 hr
[10] = Exp. 2, 100 ug/mL in water, 1 hour exposure

Compound | biocidal effect on S. aureus (in words) ([1]; Exp. 2, 1 hour exposure) | biocidal effect on F. solani (in words) [2] | biocidal effect on C. albicans (in words) [3] | biocidal effect on P. aeruginosa (in words) ([4]; Exp. 2, 1 hour exposure) | biocidal effect on S. marcescens (in words) [5] | lowest concentration resulting in complete kill of P. aeruginosa ([4]; Exp. 3) | average cfu/mL [4, 7] | average cfu/mL [4, 8] | average cfu/mL [4, 9] | further results
C[C@@H](N)C(=O)N[C@H](CCCCN)C(=O)N[C@H](CCCNC(=N)N)C(=O)N[C@H](Cc1c[nH]cn1)C(=O)N[C@H](Cc1c[nH]cn1)C(=O)NCC(=O)N[C@H](Cc1ccc(O)cc1)C(=O)N[C@H](CCCCN)C(=O)N[C@H](CCCNC(=N)N)C(=O)N[C@H](CCCCN)C(=O)N[C@H](Cc1ccccc1)C(=O)N[C@H](Cc1c[nH]cn1)C(N)=O [P-113D] (H-[dA][dK][dR][dH][dH]G[dY][dK][dR][dK][dF][dH]-NH2; N-terminus and C-terminus assumed) | no effect | effective | effective | effective | no effect | – | – | – | – | –
AKRHHGYKRKFH-NH2 (C-terminus assumed) [P-113] | no effect | effective | effective | effective | no effect | 3.33 µg/mL | 5.00E+00 cfu/mL | 0.00E+00 cfu/mL | 0.00E+00 cfu/mL | effectiveness against S. aureus (in words) ([1]; Exp. 3, 1 to 100 ug/mL, 1 hour): not effective
FAKKFAKKFKKFAKKFAKFAFAF [D2A21] | – | – | – | – | – | 1 µg/mL | 0.00E+00 cfu/mL | 0.00E+00 cfu/mL | 0.00E+00 cfu/mL | average cfu/mL [1, 10]: 0.00E+00 cfu/mL; concentration achieving complete kill of S. aureus ([1]; Exp. 3, 1 hour, tested at 100, 33.3, 10, 3.33 and 1 ug/mL): 3.33 µg/mL; average cfu/mL [1, 7]: 0.00E+00 cfu/mL; average cfu/mL [1, 8]: 0.00E+00 cfu/mL; average cfu/mL [1, 9]: 0.00E+00 cfu/mL; average cfu/mL ([2]; 100 ug/mL in water): 0.00E+00 cfu/mL; average cfu/mL ([3]; 100 ug/mL in water): 0.00E+00 cfu/mL; average cfu/mL [4, 10]: 0.00E+00 cfu/mL; average cfu/mL ([4]; Exp. 3, Conc. 1 μg/mL, T = 1 hr): 0.00E+00 cfu/mL; average cfu/mL ([4]; Exp. 3, Conc. 10 μg/mL, T = 1 hr): 0.00E+00 cfu/mL; kill of all 5 organisms (in words) [6]: complete kill; average cfu/mL ([5]; 100 ug/mL in water): 0.00E+00 cfu/mL
